# Measured values: ChEMBL document CHEMBL6071135, “New resorcylic acid derivatives of Lysimachia tengyuehensis against MRSA and VRE by interfering with bacterial metabolic imbalance” (Eur J Med Chem, 2024)
# Active and inactive are the calls of the source. The rule behind the calls is not given here.
# Key:
# [1] = Toxicity in Kunming mouse assessed as morphological abnormalities at 4 mg/kg administered daily and measured after 7 days; format: organism-based; conditions: in vivo, 168 h, time 7 day
# Staphylococcus aureus [2] = experiment: Antibiofilm activity in methicillin-resistant Staphylococcus aureus assessed as increase in biofilm destruction incubated for 24 hrs by crystal violet staining based analysis; format: functional, organism-based
# Staphylococcus aureus [3] = experiment: Antimicrobial activity against methicillin-resistant Staphylococcus aureus assessed as increase in cell membrane fluidity at upto 4 times MIC incubated for 35 mins by Laurdan-GP dye based spectramax gemini XPS microplate reader analysis; format: functional, organism-based
# Staphylococcus aureus [4] = experiment: Antibacterial activity against methicillin resistant Staphylococcus aureus infected in female Kunming mouse model of skin infection assessed as increase in neovascularization at 4 mg/kg administered daily pre-infected for 4 hrs followed by compound administration for 7 days; format: functional, organism-based; conditions: time 7.0 day
# Staphylococcus aureus [5] = experiment: Antibacterial activity against methicillin resistant Staphylococcus aureus infected in female Kunming mouse model of skin infection assessed as reduction in inflammatory cell infiltration at 4 mg/kg administered daily pre-infected for 4 hrs followed by compound administration for 7 days; format: functional, organism-based; conditions: time 7.0 day
# Enterococcus faecalis [6] = experiment: Induction of morphological changes in biofilm of vancomycin-resistant Enterococcus faecalis ATCC51299 assessed as appearance of destroyed biofilm at 1 to 4 times MIC incubated for 24 hrs by DAPI staining based fluorescence microscopy analysis; format: functional, organism-based
# Staphylococcus aureus [7] = experiment: Antibacterial activity against methicillin resistant Staphylococcus aureus infected in female Kunming mouse model of skin infection assessed as reduction in bacterial load of wound at 4 mg/kg administered daily pre-infected for 4 hrs followed by compound administration for 7 days; format: functional, organism-based; conditions: time 7.0 day
# Staphylococcus aureus [8] = experiment: Antibacterial activity against methicillin-resistant Staphylococcus aureus measured after 24 hrs by CLSI based broth microdilution method; format: functional
# RAW264.7 = experiment: Cytotoxicity against mouse RAW264.7 cells at 16 ug/ml incubated for 24 hrs by MTT assay; format: toxicity, cell-based; conditions: raw264.7, 24 h, dose 16 µg/ml
# Cell membrane = experiment: Induction of cell membrane damage in vancomycin-resistant Enterococcus faecalis ATCC51299 assessed as increase in ROS accumulation at 4 times MIC incubated for 1 hr by fluorescence based analysis; format: subcellular
# Staphylococcus aureus [9] = experiment: Antibacterial activity against methicillin resistant Staphylococcus aureus infected in female Kunming mouse model of skin infection assessed as reduction in wound size at 4 mg/kg administered daily pre-infected for 4 hrs followed by compound administration for 7 days; format: functional, organism-based; conditions: time 7.0 day
# Staphylococcus aureus [10] = experiment: Antibacterial activity against methicillin resistant Staphylococcus aureus infected in female Kunming mouse model of skin infection assessed as suppression of purulent secretion at 4 mg/kg administered daily pre-infected for 4 hrs followed by compound administration for 7 days; format: functional, organism-based; conditions: time 7.0 day
# Enterococcus faecalis [11] = experiment: Antibacterial activity against vancomycin-resistant Enterococcus faecalis ATCC51299 infected in female Kunming mouse model of abdominal infection assessed as decrease in inflammatory cell infiltration at 4 mg/kg administered daily pre-infected for 12 hrs followed by compound administration for 3 days; format: functional, organism-based; conditions: time 3.0 day
# Enterococcus faecalis [12] = experiment: (§1) Antibacterial activity against vancomycin-resistant Enterococcus faecalis ATCC51299 infected in female Kunming mouse model of abdominal infection assessed as decrease in bacterial load in spleen at 4 mg/kg administered daily pre-infected for 12 hrs followed by compound administration for 3 days; format: functional, organism-based; conditions: time 3.0 day
# Staphylococcus aureus [13] = experiment: Antibiofilm activity in methicillin-resistant Staphylococcus aureus assessed as increase in biofilm destruction at 1 times MIC incubated for 24 hrs by crystal violet staining based analysis relative to control; format: functional
# Enterococcus faecalis [14] = experiment: Antibacterial activity against vancomycin-resistant Enterococcus faecalis ATCC51299 infected in female Kunming mouse model of abdominal infection assessed as decrease in bacterial load in kidney at 4 mg/kg administered daily pre-infected for 12 hrs followed by compound administration for 3 days; format: functional, organism-based; conditions: time 3.0 day
# Enterococcus faecalis [15] = experiment: Antibacterial activity against vancomycin-resistant Enterococcus faecalis ATCC51299 infected in female Kunming mouse model of abdominal infection assessed as decrease in granulocytes at 4 mg/kg administered daily pre-infected for 12 hrs followed by compound administration for 3 days; format: functional, organism-based; conditions: time 3.0 day
# Enterococcus faecalis [16] = experiment: as §1, with “peritoneal effusion” for “spleen”; format: functional, organism-based; conditions: time 3.0 day
# Enterococcus faecalis [17] = experiment: Antibacterial activity against vancomycin-resistant Enterococcus faecalis ATCC51299 infected in female Kunming mouse model of abdominal infection assessed as decrease in bacterial load in liver at 4 mg/kg administered daily pre-infected for 12 hrs followed by compound administration for 3 days; format: functional, organism-based; conditions: time 3.0 day
# Enterococcus faecalis [18] = experiment: Antibiofilm activity in vancomycin-resistant Enterococcus faecalis ATCC51299 assessed as increase in biofilm destruction at 1 times MIC incubated for 24 hrs by crystal violet staining based analysis relative to control; format: functional
# Enterococcus faecalis [19] = experiment: Antibacterial activity against vancomycin-resistant Enterococcus faecalis ATCC51299 infected in female Kunming mouse model of abdominal infection assessed as watery degeneration of hepatocytes at 4 mg/kg administered daily pre-infected for 12 hrs followed by compound administration for 3 days; format: functional, organism-based; conditions: time 3.0 day
structure (smiles),measurement,setting,value
C=CCCCCCCCCCCCc1cc(O)cc(O)c1C(=O)O,Activity,[1],Non-Toxic
same,Activity,Staphylococcus aureus [2],Dose-Dependent Effect
same,Activity,Staphylococcus aureus [3],Active
same,Activity,Staphylococcus aureus [4],Active
same,Activity,Staphylococcus aureus [5],Active
same,Activity,Enterococcus faecalis [6],Active
same,Activity,Staphylococcus aureus [7],Active
same,Activity,Staphylococcus aureus [8],Active
same,MIC,Staphylococcus aureus [8],4 µg/mL
same,Activity,RAW264.7,Non-Toxic
same,Activity,Cell membrane,Active
same,Activity,Staphylococcus aureus [9],Active
same,Activity,Staphylococcus aureus [10],Active
C=CCCCCCCCCCCCc1cc(O)cc(O)c1,Activity,Staphylococcus aureus [2],Dose-Dependent Effect
same,Activity,Staphylococcus aureus [3],Active
same,Activity,Enterococcus faecalis [11],Active
same,Activity,Enterococcus faecalis [12],Active
same,Activity,Enterococcus faecalis [6],Active
same,Activity,Staphylococcus aureus [13],>50%
same,Activity,Enterococcus faecalis [14],Active
same,Activity,Enterococcus faecalis [15],Active
same,Activity,Staphylococcus aureus [8],Active
same,MIC,Staphylococcus aureus [8],4 µg/mL
same,Activity,RAW264.7,Non-Toxic
same,Activity,Enterococcus faecalis [16],Active
same,Activity,Enterococcus faecalis [17],Active
same,Activity,Cell membrane,Active
same,Activity,Enterococcus faecalis [18],>50%
same,Activity,Enterococcus faecalis [19],Active
